Data reported in patent publication US20230233569A1 (Revolution Medicines, Inc., priority 2020, published 2023).
Where two headings read alike, the source gives them in different places.

Columns and labels:
NCI-H358 (K-Ras G12C) = assay: CellTiter-Glo cell viability assay, 5-day treatment; format: cell-based; details: Homo sapiens, NCI-H358, 120 h, 5-day treatment; read-out: H358 Cell Viability assay data (K-Ras G12C, IC50)
In short: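 Viability is read as luminescence on day 5 after direct compound addition to plated cells, following about 30 minutes' room-temperature equilibration. Each signal is scaled to mean DMSO as 100%.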

NRAS Q61K = NRAS Q61K (Homo sapiens, UniProt P01111+P62937, Q61K); assay: Disruption of BRAF RBD interaction with Ras (FRET / MOA assay, with Cyclophilin A); format: biochemical; details: NRAS Q61K; read-out: NRAS Q61K FRET data IC50
Excerpt: Disruption of B-Raf Ras-Binding Domain (BRAF^RBD) Interaction with K-Ras by Compounds of the Invention (Also Called a FRET Assay or an MOA Assay)
Note—The following protocol describes a procedure for monitoring disruption of K-Ras G12C (GMP-PNP) binding to BRAF^RBD by a compound of the invention. This protocol may also be executed substituting other Ras proteins or nucleotides.
(§1) The purpose of this biochemical assay was to measure the ability of test compounds to facilitate ternary complex formation between a nucleotide-loaded K-Ras isoform and Cyclophilin A; the resulting ternary complex disrupts binding to a BRAF^RBD construct, inhibiting K-Ras signaling through a RAF effector. Data is reported as IC50 values.
(§2) In assay buffer containing 25 mM HEPES pH 7.3, 0.002% Tween20, 0.1% BSA, 100 mM NaCl and 5 mM MgCl2, tagless Cyclophilin A, His6-K-Ras-GMPPNP, and GST-BRAF^RBD were combined in a 384-well assay plate at final concentrations of 25 μM, 12.5 nM and 50 nM, respectively. Compound was present in plate wells as a 10-point 3-fold dilution series starting at a final concentration of 30 μM. After incubation at 25° C. for 3 hours, a mixture of Anti-His Eu-W1024 and anti-GST allophycocyanin was then added to assay sample wells at final concentrations of 10 nM and 50 nM, respectively, and the reaction incubated for an additional 1.5 hours. […] Compounds that facilitate disruption of a K-Ras:RAF complex were identified as those eliciting a decrease in the TR-FRET ratio relative to DMSO control wells.
as §1, with “BRAF^RBDD” for “BRAF^RBD”

KRAS G12S = KRAS G12S (Homo sapiens, UniProt P01116+P62937, G12S); assay: Ras-Raf disruption / FRET / MOA assay (BRAF RBD); format: biochemical; details: with Cyclophilin A
Excerpt: (§3) Disruption of […] Ras-binding Domain (BRAF^RBD) Interaction with K-Ras by Compounds of the Invention (also Called a FRET Assay or an MOA Assay)
(§4) Note—The following protocol describes a procedure for monitoring disruption of K-Ras G12C (GMP-PNP) binding to BRAF^RBD by a compound of the invention. This protocol may also be executed substituting other Ras proteins or nucleotides, such as K-Ras G12D and K-Ras G13D.
as §1
as §2, with “12.5 nM,” for “12.5 nM”, “of anti-His” for “of Anti-His”

KRAS G13D = KRAS G13D (Homo sapiens, UniProt P01116+P62937, G13D); assay: Ras-Raf disruption / FRET / MOA assay (BRAF RBD); format: biochemical; details: with Cyclophilin A
Excerpt: as §3, §4, §1
as §2, with “12.5 nM,” for “12.5 nM”, “of anti-His” for “of Anti-His”

KRAS G12V = KRAS G12V (Homo sapiens, UniProt P01116+P62937, G12V); assay: Ras-Raf disruption / FRET / MOA assay (BRAF RBD); format: biochemical; details: with Cyclophilin A
Excerpt: as §3, §4, §1
as §2, with “12.5 nM,” for “12.5 nM”, “of anti-His” for “of Anti-His”

KRAS WT = KRAS WT (Homo sapiens, UniProt P01116+P62937); assay: Ras-Raf disruption / FRET / MOA assay (BRAF RBD); format: biochemical; details: with Cyclophilin A
Excerpt: as §3, §4, §1
as §2, with “12.5 nM,” for “12.5 nM”, “of anti-His” for “of Anti-His”

[1] = Ras-Raf disruption, read-out: KRAS G12S FRET data IC50
[2] = Ras-Raf disruption, read-out: KRAS G12V FRET data IC50
[3] = Ras-Raf disruption, read-out: KRAS WT FRET data IC50

Sequence of KRAS G12V (P01116 1-169 isoform P01116-2 G12V limits assumed): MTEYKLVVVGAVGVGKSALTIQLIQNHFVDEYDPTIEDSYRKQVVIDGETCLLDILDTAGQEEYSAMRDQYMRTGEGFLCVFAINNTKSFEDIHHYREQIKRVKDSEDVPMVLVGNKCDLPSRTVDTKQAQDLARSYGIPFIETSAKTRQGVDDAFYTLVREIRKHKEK
Sequence of KRAS G12V (P62937 whole entry): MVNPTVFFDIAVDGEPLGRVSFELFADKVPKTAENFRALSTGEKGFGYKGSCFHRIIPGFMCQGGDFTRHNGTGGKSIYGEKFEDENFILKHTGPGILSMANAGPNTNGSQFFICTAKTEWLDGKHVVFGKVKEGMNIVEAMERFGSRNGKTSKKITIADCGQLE
Sequence of KRAS WT (P01116 1-169 isoform P01116-2 limits assumed): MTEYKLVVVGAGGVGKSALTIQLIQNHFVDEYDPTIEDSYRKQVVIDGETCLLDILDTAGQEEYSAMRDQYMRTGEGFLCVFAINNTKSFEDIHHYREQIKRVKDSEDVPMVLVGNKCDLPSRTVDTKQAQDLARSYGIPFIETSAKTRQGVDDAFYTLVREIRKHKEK
Sequence of KRAS WT (P62937 whole entry): as the sequence (P62937 whole entry) above
Sequence of KRAS G12S (P01116 1-169 isoform P01116-2 G12S limits assumed): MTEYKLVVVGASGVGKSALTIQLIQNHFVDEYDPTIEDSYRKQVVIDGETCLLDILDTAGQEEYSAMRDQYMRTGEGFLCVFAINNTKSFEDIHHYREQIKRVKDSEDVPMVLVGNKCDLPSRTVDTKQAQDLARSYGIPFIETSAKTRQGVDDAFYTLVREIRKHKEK
Sequence of KRAS G12S (P62937 whole entry, the tested form may be a part): as the sequence (P62937 whole entry) above
Sequence of KRAS G13D (P01116 1-169 isoform P01116-2 G13D limits assumed): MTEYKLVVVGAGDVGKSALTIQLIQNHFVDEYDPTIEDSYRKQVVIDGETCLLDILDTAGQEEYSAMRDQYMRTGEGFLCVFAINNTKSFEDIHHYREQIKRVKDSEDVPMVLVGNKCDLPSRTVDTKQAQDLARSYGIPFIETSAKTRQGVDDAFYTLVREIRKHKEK
Sequence of KRAS G13D (P62937 whole entry): as the sequence (P62937 whole entry) above
Sequence of NRAS Q61K (P01111 whole entry Q61K, the tested form may be a part): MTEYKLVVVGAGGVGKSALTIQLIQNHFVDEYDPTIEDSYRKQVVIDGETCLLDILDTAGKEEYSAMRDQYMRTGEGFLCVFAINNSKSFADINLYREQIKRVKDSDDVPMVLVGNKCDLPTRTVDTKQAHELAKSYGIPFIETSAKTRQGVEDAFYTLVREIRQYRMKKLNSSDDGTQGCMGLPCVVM
Sequence of NRAS Q61K (P62937 whole entry, the tested form may be a part): as the sequence (P62937 whole entry) above

| IC50 (KRAS G12S; [1]) [µM] | IC50 (KRAS G12V; [2]) [µM] | IC50 (KRAS WT; [3]) [µM] | Compound | further results |
| --- | --- | --- | --- | --- |
| – | – | – | CCn1c(-c2cccnc2[C@H](C)OC)c2c3cc(ccc31)-c1csc(n1)C[C@H](NC(=O)[C@H](C(C)C)N(C)C(=O)N1CC(C(C)(C)O)C1)C(=O)N1CCC[C@H](N1)C(=O)OCC(C)(C)C2 (atropisomer, axis not shown) [Example A289] | IC50 (NCI-H358 (K-Ras G12C)): < 0.01 µM; IC50 (NRAS Q61K): 0.01 to 0.1 µM |
| > 10 | – | – | CCn1c(-c2cnccc2COC)c2c3cc(ccc31)-c1cccc(c1)C[C@H](NC(=O)[C@H](C(C)C)N(C)C(=O)CCN=C=NCCCSC)C(=O)N1CCC[C@H](N1)C(=O)OCC(C)(C)C2 [16 A and B] | IC50 (KRAS G13D; Ras-Raf disruption, read-out: KRAS G13D FRET data IC50): > 10 µM |
| > 10 | > 10 | > 10 | CCn1c(-c2cnccc2COC)c2c3cc(ccc31)-c1cccc(c1)C[C@H](NC(=O)[C@H](C(C)C)N(C)C(=O)CCN=C=NCc1ccc(OC)cc1)C(=O)N1CCC[C@H](N1)C(=O)OCC(C)(C)C2 [18 A and B] | – |
| > 10 | > 10 | > 10 | CCn1c(-c2cnccc2COC)c2c3cc(ccc31)-c1cccc(c1)C[C@H](NC(=O)[C@H](C(C)C)N(C)C(=O)CCN=C=NCc1ccccc1)C(=O)N1CCC[C@H](N1)C(=O)OCC(C)(C)C2 [19 A and B] | – |
| – | – | – | CCn1c(-c2cnccc2COC)c2c3cc(ccc31)-c1cc(O)cc(c1)C[C@H](NC(=O)[C@H](C(C)C)N(C)C(=O)CN(C)C(=O)C1CN1)C(=O)N1CCC[C@H](N1)C(=O)OCC(C)(C)C2 (stereo partly drawn) [32 A and B] | IC50 (KRAS G12S; KRAS G12S FRET data IC50, Ras-Raf disruption): > 10 µM; IC50 (KRAS G12V; KRAS G12V FRET data IC50, Ras-Raf disruption): > 10 µM; IC50 (KRAS G13D; KRAS G13D FRET data IC50, Ras-Raf disruption): 1 to 10 µM; IC50 (KRAS WT; KRAS WT FRET data IC50, Ras-Raf disruption): > 10 µM |
| – | 1 to 10 | – | CCn1c(-c2cnccc2COC)c2c3cc(ccc31)-c1cccc(c1)C[C@H](NC(=O)[C@H](C(C)C)N(C)C(=O)CCCN=C=NCCCOC)C(=O)N1CCC[C@H](N1)C(=O)OCC(C)(C)C2 [69 A and B] | – |
